Laboratory results as given in paper PMC8177813 (Journal of pharmaceutical sciences, 2020).
Structures can show the parent of a compound that is named as a salt.

Tested on: not given
Assay: not given
Conditions: cited from earlier work

Row | Compound | renal clearance as share of total plasma clearance | share of renal clearance thought to result from OAT3-mediated tubular secretion
1 | CC(C)c1nc(N(C)S(C)(=O)=O)nc(-c2ccc(F)cc2)c1/C=C/[C@@H](O)C[C@@H](O)CC(=O)O [rosuvastatin] | 28% | 90%

Molecular target: T1, human OAT3 (Homo sapiens, UniProt Q8TCC7)
T1 sequence (Q8TCC7 1-542): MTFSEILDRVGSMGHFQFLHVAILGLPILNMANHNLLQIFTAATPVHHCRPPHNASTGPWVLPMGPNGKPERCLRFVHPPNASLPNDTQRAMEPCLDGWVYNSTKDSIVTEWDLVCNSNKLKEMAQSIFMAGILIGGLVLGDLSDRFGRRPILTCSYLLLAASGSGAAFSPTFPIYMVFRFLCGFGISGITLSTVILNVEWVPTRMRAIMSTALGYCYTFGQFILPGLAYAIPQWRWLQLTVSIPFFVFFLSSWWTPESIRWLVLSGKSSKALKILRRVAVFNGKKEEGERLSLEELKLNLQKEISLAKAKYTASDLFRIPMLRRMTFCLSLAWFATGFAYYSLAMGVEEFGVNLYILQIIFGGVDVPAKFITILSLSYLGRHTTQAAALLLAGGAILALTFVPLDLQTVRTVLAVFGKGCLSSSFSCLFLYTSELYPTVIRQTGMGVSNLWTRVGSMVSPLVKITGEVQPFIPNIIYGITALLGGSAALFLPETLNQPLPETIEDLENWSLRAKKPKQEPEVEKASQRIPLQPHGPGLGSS
Assay: Inhibition of OAT3-mediated 6-carboxyfluorescein
Conditions: not given

Row | Compound | Ki
2 | CC(C(=O)O)c1cccc(C(=O)c2ccccc2)c1 (stereo not shown) [Ketoprofen, reference compound] | 1.61 µM
3 | CC(=O)CC(c1ccccc1)c1c(O)c2ccccc2oc1=O (stereo not shown) [Warfarin, reference compound] | 3.11 µM

Same assay, conditions: metabolite versus losartan

Row | Compound | times more potent in inhibiting OAT3 than parent drug
4 | CCCCc1nc(Cl)c(C(=O)O)n1Cc1ccc(-c2ccccc2-c2nn[nH]n2)cc1 [Losartan carboxylic acid] | 3.6 times

Same assay, conditions: read-out: Ki (OAT3)

Row | Compound | Ki
5 | 4-Hydroxy flurbiprofen | 1.39 µM
6 | COc1ccc(Cl)cc1C(=O)NCCc1ccc(S(=O)(=O)NC(=O)N[C@H]2CCC[C@@H](O)C2)cc1 (relative stereo) [3-cis-hydroxycyclohexyl glyburide] | 0.81 µM
7 | O=C(O)Cc1ccccc1Nc1c(Cl)cc(O)cc1Cl [4-Hydroxy diclofenac] | 2.03 µM
8 | O=c1n(CCCN2CCN(c3ccc(O)c(Cl)c3)CC2)nc2ccccn12 [4-hydroxy-trazodone] | 16.9 µM
9 | CN1C(C(=O)Nc2ncc(C(=O)O)s2)=C(O)c2ccccc2S1(=O)=O [5-Carboxy-meloxicam] | 0.7 µM
10 | CN(CCOc1ccc(CC2SC(=O)NC2=O)cc1)c1ccc(O[C@@H]2O[C@H](C(=O)O)[C@@H](O)[C@H](O)[C@H]2O)cn1 (stereo partly drawn) [5-Hydroxy Rosiglitazone β-D-Glucuronide] | > 200 µM
11 | CN(CCOc1ccc(CC2SC(=O)NC2=O)cc1)c1ccc(OS(=O)(=O)O)cn1 (stereo not shown) [5-OH-rosiglitazone sulfate] | 1.31 µM
12 | CC(=O)C[C@@H](c1ccccc1)c1c(O)c2ccc(O)cc2oc1=O [(S)-7-hydroxy warfarin] | 1.93 µM
13 | C[C@H](C(=O)O)c1ccc2cc(O)ccc2c1 [(S)-O-desmethyl naproxen] | 3.44 µM
14 | COc1ccc2cc([C@H](C)C(=O)O[C@@H]3O[C@H](C(=O)O)[C@@H](O)[C@H](O)[C@H]3O)ccc2c1 [(S)-naproxen acyl-β-D-glucuronide] | 5.43 µM
15 | C[C@]12CC[C@H](OS(=O)(=O)O)CC1=CC[C@@H]1[C@@H]2CC[C@]2(C)C(c3ccc[n+]([O-])c3)=CC[C@@H]12 [Abiraterone N-oxide sulfate] | 1.36 µM
16 | C[C@]12CC[C@H](OS(=O)(=O)O)CC1=CC[C@@H]1[C@@H]2CC[C@]2(C)C(c3cccnc3)=CC[C@@H]12 [Abiraterone sulfate] | 1.83 µM
17 | NS(=O)(=O)c1ccc(-n2nc(C(F)(F)F)cc2-c2ccc(C(=O)O)cc2)cc1 [Celecoxib carboxylic acid] | 8.43 µM
18 | Cc1ccc(NC(=O)c2ccc(CN3CC[N+](C)([O-])CC3)cc2)cc1Nc1nccc(-c2cccnc2)n1 [Imatinib (piperidine)-4-oxide] | 64.2 µM
19 | CC(=O)c1ccc(CCOc2ccc(CC3SC(=O)NC3=O)cc2)nc1 (stereo not shown) [Keto pioglitazone] | 0.73 µM

Molecular target: T2, human OAT1 (Homo sapiens, UniProt Q4U2R8)
T2 sequence (Q4U2R8 1-563): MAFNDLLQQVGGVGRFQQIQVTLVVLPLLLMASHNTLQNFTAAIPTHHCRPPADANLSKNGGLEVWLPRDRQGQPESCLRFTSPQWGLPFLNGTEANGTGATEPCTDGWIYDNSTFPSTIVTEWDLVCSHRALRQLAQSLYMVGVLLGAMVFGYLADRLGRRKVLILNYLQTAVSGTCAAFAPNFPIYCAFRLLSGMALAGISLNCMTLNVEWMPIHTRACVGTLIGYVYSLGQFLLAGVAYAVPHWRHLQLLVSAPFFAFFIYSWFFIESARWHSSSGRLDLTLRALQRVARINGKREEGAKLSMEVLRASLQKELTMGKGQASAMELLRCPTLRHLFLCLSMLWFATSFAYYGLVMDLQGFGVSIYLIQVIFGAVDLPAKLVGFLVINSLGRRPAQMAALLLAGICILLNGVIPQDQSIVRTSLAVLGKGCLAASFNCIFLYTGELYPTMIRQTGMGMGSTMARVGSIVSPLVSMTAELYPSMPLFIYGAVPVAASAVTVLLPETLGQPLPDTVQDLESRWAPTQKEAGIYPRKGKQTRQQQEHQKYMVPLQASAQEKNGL
Assay: Inhibition of OAT1-mediated 6-carboxyfluorescein
Conditions: not given

Row | Compound | Ki
20 | CC(C(=O)O)c1cccc(C(=O)c2ccccc2)c1 (stereo not shown) [Ketoprofen, reference compound] | 1.73 µM
21 | CCCCc1nc(Cl)c(C(=O)O)n1Cc1ccc(-c2ccccc2-c2nn[nH]n2)cc1 [Losartan carboxylic acid] | 0.69 µM
22 | CC(=O)CC(c1ccccc1)c1c(O)c2ccccc2oc1=O (stereo not shown) [Warfarin, reference compound] | 15.8 µM

Same assay, conditions: metabolite versus losartan

Row | Compound | times more potent in inhibiting OAT1 than parent drug
23 | CCCCc1nc(Cl)c(C(=O)O)n1Cc1ccc(-c2ccccc2-c2nn[nH]n2)cc1 [Losartan carboxylic acid] | 16.5 times

Same assay, conditions: read-out: Ki (OAT1)

Row | Compound | Ki
24 | 4-Hydroxy flurbiprofen | 1.6 µM
25 | O=C(O)Cc1ccccc1Nc1c(Cl)cc(O)cc1Cl [4-Hydroxy diclofenac] | 0.48 µM
26 | O=c1n(CCCN2CCN(c3ccc(O)c(Cl)c3)CC2)nc2ccccn12 [4-hydroxy-trazodone] | > 200 µM
27 | CN1C(C(=O)Nc2ncc(C(=O)O)s2)=C(O)c2ccccc2S1(=O)=O [5-Carboxy-meloxicam] | 19.6 µM
28 | CN(CCOc1ccc(CC2SC(=O)NC2=O)cc1)c1ccc(O[C@@H]2O[C@H](C(=O)O)[C@@H](O)[C@H](O)[C@H]2O)cn1 (stereo partly drawn) [5-Hydroxy Rosiglitazone β-D-Glucuronide] | > 200 µM
29 | CN(CCOc1ccc(CC2SC(=O)NC2=O)cc1)c1ccc(OS(=O)(=O)O)cn1 (stereo not shown) [5-OH-rosiglitazone sulfate] | 33.7 µM
30 | CC(=O)C[C@@H](c1ccccc1)c1c(O)c2ccc(O)cc2oc1=O [(S)-7-hydroxy warfarin] | 14.5 µM
31 | C[C@H](C(=O)O)c1ccc2cc(O)ccc2c1 [(S)-O-desmethyl naproxen] | 4.7 µM
32 | COc1ccc2cc([C@H](C)C(=O)O[C@@H]3O[C@H](C(=O)O)[C@@H](O)[C@H](O)[C@H]3O)ccc2c1 [(S)-naproxen acyl-β-D-glucuronide] | > 200 µM
33 | C[C@]12CC[C@H](OS(=O)(=O)O)CC1=CC[C@@H]1[C@@H]2CC[C@]2(C)C(c3cccnc3)=CC[C@@H]12 [Abiraterone sulfate] | 38.2 µM
34 | NS(=O)(=O)c1ccc(-n2nc(C(F)(F)F)cc2-c2ccc(C(=O)O)cc2)cc1 [Celecoxib carboxylic acid] | 262 µM
35 | Cc1ccc(NC(=O)c2ccc(CN3CC[N+](C)([O-])CC3)cc2)cc1Nc1nccc(-c2cccnc2)n1 [Imatinib (piperidine)-4-oxide] | > 200 µM
36 | CC(=O)c1ccc(CCOc2ccc(CC3SC(=O)NC3=O)cc2)nc1 (stereo not shown) [Keto pioglitazone] | 12.5 µM

Same assay, conditions: read-out: Ki (OAT1); HEK293 cells stably transfected with OAT1; 2 μM 6CF, 3 min, 37 °C; […]

Row | Compound | Ki
37 | COc1ccc(Cl)cc1C(=O)NCCc1ccc(S(=O)(=O)NC(=O)N[C@H]2CCC[C@@H](O)C2)cc1 (relative stereo) [3-cis-hydroxycyclohexyl glyburide] | 10.1 µM
38 | C[C@]12CC[C@H](OS(=O)(=O)O)CC1=CC[C@@H]1[C@@H]2CC[C@]2(C)C(c3ccc[n+]([O-])c3)=CC[C@@H]12 [Abiraterone N-oxide sulfate] | > 100 µM

Molecular target: T1, human OAT3
Assay: cell-based
Conditions: not given

Row | Compound | Ki
39 | CCCCc1nc(Cl)c(C(=O)O)n1Cc1ccc(-c2ccccc2-c2nn[nH]n2)cc1 [Losartan carboxylic acid] | 0.1 µM

Tested on: not given
Assay: not given
Conditions: in vivo

Row | Compound | Cmax,u
40 | C[C@]12CC[C@H](OS(=O)(=O)O)CC1=CC[C@@H]1[C@@H]2CC[C@]2(C)C(c3ccc[n+]([O-])c3)=CC[C@@H]12 [Abiraterone N-oxide sulfate] | 0.092 µM
41 | C[C@]12CC[C@H](OS(=O)(=O)O)CC1=CC[C@@H]1[C@@H]2CC[C@]2(C)C(c3cccnc3)=CC[C@@H]12 [Abiraterone sulfate] | 0.25 µM

Tested on: not given
Assay: not given
Conditions: no reference given; cited from earlier work

Row | Compound | plasma unbound fraction
42 | CCCCc1nc(Cl)c(C(=O)O)n1Cc1ccc(-c2ccccc2-c2nn[nH]n2)cc1 [Losartan carboxylic acid] | lower than 1%

Same assay, conditions: plasma; ref https://doi.org/10.1002/cpdd.132; cited from earlier work

Row | Compound | Cmax
43 | C[C@]12CC[C@H](OS(=O)(=O)O)CC1=CC[C@@H]1[C@@H]2CC[C@]2(C)C(c3ccc[n+]([O-])c3)=CC[C@@H]12 [Abiraterone N-oxide sulfate] | 9.2 µM
44 | C[C@]12CC[C@H](OS(=O)(=O)O)CC1=CC[C@@H]1[C@@H]2CC[C@]2(C)C(c3cccnc3)=CC[C@@H]12 [Abiraterone sulfate] | 25 µM

Tested on: not given
Assay: not given
Conditions: cited from earlier work
Remark: another data set of the same source

Row | Compound | acidic pKa
45 | NS(=O)(=O)c1ccc(-n2nc(C(F)(F)F)cc2-c2ccc(C(=O)O)cc2)cc1 [Celecoxib carboxylic acid] | 3.98
